Test results as given in patent US20120208204A1, “Compositions and Methods for Inhibiting Tumor Growth” (The Brigham and Women's Hospital, Inc., priority 2009, published 2012).
Like-named read-outs stand apart in the source and are kept apart here.

Key:
PAK3 = biological target: T1, PAK3 (Homo sapiens, UniProt O75914); experiment: Enzyme based PAK3 kinase assay (HTRF / TR-FRET), IC50; type: biochemical; conditions: PAK3 inhibitory compounds; IC50 done in quadruplicate
T1 construct: Recombinant human full length PAK3 enzyme was obtained (Invitrogen); purchased Invitrogen
Description: Recombinant human full length PAK3 enzyme was obtained (Invitrogen), immediately aliquoted and kept in storage buffer as purchased at −80° C. for long term storage. The HTRF® KinEASE™ kit (CisBio) containing 5× stock solution of the enzymatic buffer and 1× detection buffer, STK substrate 2-biotin (S2), a phosphospecific monoclonal Europium-labeled Cryptate antibody, which recognizes a phospholylation epitope of the biotinylated peptide, as donor fluorophore and Stretptavadin-linked XL665 (SA-XL665) representing the acceptor fluorophor were used for TR-FRET assays. The compound library consisted of approximately 125,000 small molecules, including compounds approved by the Food and Drug Administration (FDA), a purified natural products library and commercially available compounds from various vendors. All small molecules generally adhere to Lipinski's rules and have been optimized for maximization of molecular diversity.
An enzyme based kinase assay was carried out using full length recombinant PAK3 kinase. A model biotinylated peptide RRRSLLE (SEQ ID NO:5) was used as the substrate. Detection was done by Homogeneous Time Resolve Fluorescence (HTRF) with an antibody that recognizes the phosphorylation site on the peptide.
TR-FRET assays were carried out as follows. A CRS CataLyst Express robotic arm and a Cybi-well 384 channel simultaneous pipettor were used to carry out the High-Throughput Screen. Kinase reactions were performed in 50 mM HEPES, pH 7.0, 0.02% NaN3, 2 mM MgCl2, 0.01% BSA, 0.1 mM Orthonanadate, 1 mM DTT, 0.001% Tween-20, 0.001% Brij-35 using ProxiPlate-384 Plus white assay plates. […] The kinase reaction was initiated by addition of […] per reaction (25 μM ATP final, at the Km). The reaction was incubated for 30 minutes at room temperature. Reaction was terminated by addition of 10 μl of a premixed solution of EDTA, Europium cryptate-labeled antibody and fluorophore-conjugated streptavadin. After overnight incubation at room temperature, TR-FRET measurements were performed using a PHERAstar HTS microplate reader, and were expressed as ratios of acceptor fluorescence at 665 nm over donor fluorescence at 620 nm.
(§1) Data were analyzed using GraphPad Prism Version 5 (GraphPad Software Inc., La Jolla, Calif., USA). Each compound plate included one column of negative controls, were no enzyme was added, and another column for positive controls when no inhibitor compound was added; these were used to calculate Z′ factors and signal to noise ratios throughout the screen. […] IC50 determinations were done in quadruplicate for each compound using different adding sequences for compound and enzyme-substrate-mix. EC50 determinations were done in triplicate for each compound using different time points. For calculation of IC50 and EC50 concentrations, respectively, mean inhibition dose response curves were fitted to the sigmoidal response equation: Y=Bottom+(Top−Bottom)/(1+10̂((X−LogIC50))) were X is log(compound concentration) and Y is % inhibition, and Bottom and Top are the lower and upper plateau. Km concentrations were determined by non-linear regression curve fitting, using the equation: Y=Vmax*X/(Km+X), where X is the substrate concentration.

HeLa cells = experiment: Cell-based assay in HeLa cells (AlamarBlue cell viability), EC50; design: species or system human
Description: HeLa cells (ATCC) were maintained in Dulbecco's modified Eagle medium (DMEM) supplemented with 10% fetal bovine serum and 1% Penicillin/Streptomycin. Approximately 200 to 500 cells per well were seeded in a 96 well tissue culture plates. Following 24 h growth in normal DMEM, the individual compounds were warmed up to room temperature and diluted in DMEM to their according concentration and then immediately added to the wells. One column on each assay plate contained DMEM only (“neg. control”) and one column contained untreated HeLa cells as “pos. control”. Cells were treated with the compounds at various cell densities and for treatment periods ranging between 75 hrs and approx. 200 hrs. To control for cell viability, we assayed plates using AlamarBlue° (Invitrogen), which uses a redox reaction to measure metabolically active viable cells. At each time point the culture media was removed and a solution of 10% AlamarBlue reagent and DMEM was added to each well to measure cell viability. Fluorescence was measured after 1-2 hrs incubation at 37 C on a Victor^2 Plate Reader (PerkinElmer).
as §1
Compounds were tested in a cell-based assay (HeLa cells). IC50 and EC50 are expressed in micromolar units.

SGK2 = experiment: Inhibition of kinase activity by SGK2 inhibitory compounds, single concentration; type: biochemical; conditions: 10 μM compound
From the text: A library of compounds was screened for inhibitors of SGK2 and PAK3 activity by assaying phosphorylation of a generic peptide substrate either directly; or indirectly by inhibiting upstream kinase PDK1 from activating the enzyme in vitro. In both cases, the phosphorylated substrate was detected using a specific anti-phospho peptide antibody that is coupled with Eu^3+ Cryptate and XL665 conjugated with streptavidin. […] All initial hits were re-assayed as a dose response series with eight 3-fold dilutions and resulting final concentrations ranged from 0.9 nM to 20 μM.

[1] = 75 h treatment, read-out: EC50 75 h
[2] = 150 h treatment, read-out: EC50 150 h
[3] = read-out: EC50 100 h, 100 h treatment

T1 sequence (O75914 1-544 isoform O75914-2): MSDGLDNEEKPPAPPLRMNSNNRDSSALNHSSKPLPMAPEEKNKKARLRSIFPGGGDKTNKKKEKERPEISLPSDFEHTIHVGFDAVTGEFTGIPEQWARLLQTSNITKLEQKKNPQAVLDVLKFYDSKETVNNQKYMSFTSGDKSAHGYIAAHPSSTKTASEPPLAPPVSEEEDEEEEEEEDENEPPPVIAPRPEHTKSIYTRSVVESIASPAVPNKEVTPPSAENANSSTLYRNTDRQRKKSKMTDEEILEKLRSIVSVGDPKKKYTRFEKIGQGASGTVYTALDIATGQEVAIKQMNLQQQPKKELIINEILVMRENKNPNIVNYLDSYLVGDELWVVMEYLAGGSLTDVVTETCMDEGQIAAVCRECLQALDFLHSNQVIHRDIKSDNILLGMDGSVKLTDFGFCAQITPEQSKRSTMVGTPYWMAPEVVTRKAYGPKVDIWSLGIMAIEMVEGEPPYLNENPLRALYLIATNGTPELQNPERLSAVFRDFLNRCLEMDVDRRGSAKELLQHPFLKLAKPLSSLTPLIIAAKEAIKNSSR

| Compound | IC50 (PAK3) [nM] | EC50 (HeLa cells; [1]) [µM] | EC50 (HeLa cells; [2]) [µM] | EC50 (HeLa cells; [3]) [µM] | % Inhibition at 10 μM (SGK2) [%] |
| --- | --- | --- | --- | --- | --- |
| COc1ccc(-c2nc(-c3ccc(Sc4ccccc4)cc3)c(-c3ccccc3)[nH]2)cc1 [LDN-0044878] | 30 | 10.7 | 11.1 | 15.5 | 79 |
| Cc1ccc(-c2c(C#N)c(SCC(=O)c3ccc(O)c(O)c3)nc3c2CCCC3)o1 [LDN-0026056] | 690 | 13.9 | 18 | 16.9 |  |
| Cc1cc(-c2ccco2)c(C#N)c(SCC(=O)c2ccc(O)c(O)c2)n1 [LDN-0041012] | 610 | 4.6 | 3.4 | 4.6 | 95 |
| Cc1cc(C)c(C#N)c(SCC(=O)c2ccc(O)c(O)c2)n1 [LDN-0211955] | 3530 | 17.6 | 23.3 | 34 |  |
| N#Cc1c(N)nc(SCc2ccccc2)c(C#N)c1-c1ccc(O)cc1 [LDN-0028618] | 300 | 13.3 | 18.1 | 16.6 | 87 |
| N#Cc1c(N)nc(SCc2ccccc2)c(C#N)c1-c1ccccc1Cl [LDN-0211958] | 330 | 11.2 | 10.6 | 11.6 |  |
| Cc1nc(-c2ccccc2)c(-c2ccccc2)[nH]1 [LDN-0091420] | 10100 | 38.2 | 42.5 | 40.7 |  |
| Cc1ccccc1-c1c(C#N)c(N)nc(SCc2ccccc2)c1C#N [LDN-0211959] | 280 | 11.1 | 10.4 | 12.7 |  |
| Nc1ccc2[nH]c(C=Cc3ccccc3)nc2c1 [LDN-0060426] |  |  |  |  | 71 |
| Oc1ccc(N=Cc2ccc[nH]2)cc1N=Cc1ccc[nH]1 [LDN-0085170] |  |  |  |  | 62 |
| O=c1c(O)c(-c2ccc(O)c(O)c2)oc2cc(O)cc(O)c12 [LDN-0052529] |  |  |  |  | 89 |
| O=C(C=Cc1ccco1)c1ccc2c(c1)C1C=CCC1C(c1ccc(Cl)cc1)N2 (stereo not shown) [LDN-0033450] |  |  |  |  | 94 |
| O=c1cc(-c2ccccc2)c2ccc(O)c(O)c2o1 [LDN-0063260] |  |  |  |  | 98 |
| Oc1ccc(-c2csc(NCc3ccco3)n2)cc1 [LDN-0071858] |  |  |  |  | 65 |
| CCOC(=O)C1C(=O)NC(SCC(=O)Nc2ccc(Br)cc2)=C(C#N)C1c1ccccc1OCC (stereo not shown) [LDN-0028584] |  |  |  |  | 68 |
| Oc1cc(O)c2c(c1)OC(c1cc(O)c(O)c(O)c1)C(O)C2 (stereo not shown) [LDN-0097128] |  |  |  |  | 68 |
| N#Cc1c(N)nc(SCC(=O)c2ccc(O)c(O)c2)c(C#N)c1-c1ccc(O)cc1 [LDN-0028574] |  |  |  |  | 91 |
| COc1cccc(=O)c2c(C)n(CC(=O)c3ccccc3)c(C)c12 [LDN-0071595] |  |  |  |  | 64 |
| Cc1c2ccccc2nc2c(F)c(NCCO)c(F)c(F)c12 [LDN-0071563] |  |  |  |  | 88 |
